Measurements from patent US8377967B2, “Piperidine derivative” (Nippon Zoki Pharmaceutical Co., Ltd., priority 2008, dated 2013).

Key:
[1] = molecular target: human histamine H1 receptor (Homo sapiens, UniProt P35367); assay: In vitro human histamine H1 receptor binding experiment ([3H]pyrilamine); settings: HEK293A cells stably expressing human histamine H1 receptor, [3H]pyrilamine 3 nmol/L, room temperature 60 minutes
Experimental: Recombinant human histamine H1 receptor plasmid (prepared by Invitrogen) was transfected to HEK293A cells with Lipofectamine 2000 (manufactured by Invitrogen). Cells stably expressing human histamine H1 receptor were screened with Geneticin (manufactured by Invitrogen). The cells were continued to be cultured using a Dulbecco's Modified Eagle Medium containing 10% fetal bovine serum, 0.1 mmol/L MEM Non-Essential Amino Acids Solution, 2 mmol/L L-glutamine and 0.7 mg/mL Geneticin in a 5% CO2 incubator at 37° C. The cells stably expressing human histamine H1 receptor were prepared using 50 mmol/L Tris-HCl (pH 7.5) (hereinafter referred to as buffer) containing 0.1% bovine serum albumin, so as to have a concentration of 3×10^6 cells/mL, to give a cell sample preparation. Fifty microliters of the buffer, 50 μl of a test substance solution at various concentrations, and 50 μL of [^3H]pyrilamine solution (final concentration: 3 nmol/L) were added to each of the wells on the 96-well plate, and stirred, and 100 μL of the cell sample preparation was then added thereto (at a concentration of 3×10^5 cells/well) to initiate the reaction.
The cells were incubated at room temperature for 60 minutes, and then filtered on UniFilter GF/C plate (manufactured by Packard) immersed in 0.5% polyethyleneimine using a cell harvester (IH-110, manufactured by INNOTECH CORPORATION), to stop the reaction, and the plate was washed with the buffer. The plate after washing was sufficiently dried, and 20 μL of a scintillator (MaxiLight, manufactured by Hidex) was added thereto, and count per minute (cpm) was measured with a multi-labeled microplate reader (Plate Chameleo II, manufactured by Hidex). The nonspecific binding was cpm in a case where 30 μmol/L pyrilamine was added. The experiments were carried out at n=3, and at least repeated 3 times.

[2] = system: histamine-induced vascular hyperpermeability reaction; assay: Rat histamine-induced vascular hyperpermeability reaction (in vivo antihistamine action); settings: SD male rat, oral administration 1 hour before intracutaneous histamine, leaked Evans Blue pigment
Experimental: An SD male rat (SPF) of 180 g in weight was previously fed for one week or more by allowing the rat to take a solid feed and tap water ad libitum, under the environment setting of a temperature of 22° C., humidity of 55% and an artificial illumination of 12 hours a day (light phase 8 am to 8 pm), and the rat was fasted overnight to be used for the experiment. Histamine•dihydrochloride (hereinafter referred to as histamine) and Evans Blue were used by dissolving each in physiological saline upon use. A substance to be tested was dissolved in water for injection or suspended in 0.5% carboxymethyl cellulose sodium, and the rat was orally administered with the solution or suspension (dose volume: 5 mL/kg body weight). After 1 hour from the administration, the physiological saline and the histamine solution were each intracutaneously injected to two locations (20 μg/0.05 ml/location) each on a back part of the rat of which hair was sheared with an electric clipper while anesthetizing with an ether. A 0.5% Evans Blue-containing physiological saline was injected intravenously to the tail of the rat (1 mL/200 g body weight) immediately before the intracutaneous injection of the histamine.
After 30 minutes, the animal was decapitated, and allowed to bleed lethally, and the skin was removed to measure an amount of leaked pigment in the blue-stained portion. The measurement of the amount of leaked pigment was carried out as follows. Skins of the pigment leaking site were cut out at two locations, 1 mL of a 2 mol/L aqueous potassium hydroxide solution was added thereto in a test tube, and the test tube was allowed to stand overnight at 37° C. to dissolve. Thereafter, 6 mL of a 1:3 mixed solution of 0.67 mol/L phosphoric acid and acetone was added to the solution, and the mixture was vigorously shaken for 10 minutes. Thereafter, the mixture was filtered, and the absorbance of the filtrate at 620 nm was measured. The absorbance obtained from the two locations of the sites injected with physiological saline, as blank value, was used for a compensation. The amount of leaked pigment was calculated from the calibration curve of Evans Blue at 620 nm.

cerebral H1 receptor = molecular target: T1, cerebral H1 receptor (Mus musculus, UniProt P70174); assay: Murine cerebral H1 receptor occupying content (ex vivo); type: in vivo; settings: for ED50: ICR male mouse, oral administration, brain excised after 1 hour, 3H-pyrilamine binding in brain homogenate, larger = lower brain transfer, read-out: ID50 (the source's name); for ID50 (mg/kg)/ ED50 (mg/kg): ID50 of cerebral receptor binding test (Table 20) divided by ED50 of vascular hyperpermeability test (Table 19)
T1 construct: the entire brain, except for cerebellum and medulla oblongatae, was rapidly excised; from tissue; host or cells: brain homogenate (without cerebellum and medulla oblongata) of orally dosed ICR male mice
Experimental: A 6-week-old ICR male mouse was previously fed for one week or more by allowing the mouse to take a solid feed and tap water ad libitum, under the environment setting of a temperature of 22° C., humidity of 55% and an artificial illumination of 12 hours a day, and the mouse was fasted overnight to be used for the experiment. A substance to be tested was dissolved with water for injection or suspended in 0.5% carboxymethyl cellulose solution, and the solution or suspension was orally administered to the mouse (dose volume: 0.1 mL/10 g body weight). After 1 hour from the oral administration, the mouse was decapitated, and the entire brain, except for cerebellum and medulla oblongatae, was rapidly excised. The excised brain tissue was homogenized with Polytron (manufactured by Kinematica) in an ice-cooled 50 mmol/L phosphate buffered saline (pH 7.4, 100 mg/1.9 mL).
To a test tube for reaction (TPX-Tube) were added 180 μL of the brain homogenate, and 10 μL of ^3H-pyrilamine solution (final concentration: 2 nmol/L) and 10 μL of a non-labeled pyrilamine solution (final concentration: 200 μmol/L) or a 50 mmol/L phosphate buffered saline, and the mixture was incubated at room temperature for 45 minutes, and 2.0 mL of an ice-cooled, 50 mmol/L phosphate buffered saline was then added thereto to stop the reaction. The reaction mixture was filtered with a GF/B filter (manufactured by […]), and the […] was placed in a vial and dried overnight at 60 degrees. After drying, 10 mL of a scintillator (AL-1, toluene-based, manufactured by DOJINDO LABORATORIES) was added to the product, and the disintegration per minute (dpm) was measured with a liquid scintillation counter (manufactured by Packard, U.S.A., TRI-CARB 2700TR) (5 minutes/vial).

T1 sequence (P70174 whole entry): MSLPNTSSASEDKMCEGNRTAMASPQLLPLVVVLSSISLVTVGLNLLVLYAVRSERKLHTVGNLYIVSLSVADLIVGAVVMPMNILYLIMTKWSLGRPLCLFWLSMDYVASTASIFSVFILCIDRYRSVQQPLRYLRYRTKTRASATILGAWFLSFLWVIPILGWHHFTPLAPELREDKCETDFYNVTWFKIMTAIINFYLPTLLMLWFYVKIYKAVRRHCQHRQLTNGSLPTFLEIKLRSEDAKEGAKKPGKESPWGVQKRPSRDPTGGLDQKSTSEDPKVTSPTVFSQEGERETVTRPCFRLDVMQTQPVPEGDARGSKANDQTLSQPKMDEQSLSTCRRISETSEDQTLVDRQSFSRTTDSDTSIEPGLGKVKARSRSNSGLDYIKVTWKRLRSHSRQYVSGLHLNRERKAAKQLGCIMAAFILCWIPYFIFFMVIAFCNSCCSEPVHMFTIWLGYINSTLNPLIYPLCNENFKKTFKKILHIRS
Chain of human histamine H1 receptor (P35367 whole entry): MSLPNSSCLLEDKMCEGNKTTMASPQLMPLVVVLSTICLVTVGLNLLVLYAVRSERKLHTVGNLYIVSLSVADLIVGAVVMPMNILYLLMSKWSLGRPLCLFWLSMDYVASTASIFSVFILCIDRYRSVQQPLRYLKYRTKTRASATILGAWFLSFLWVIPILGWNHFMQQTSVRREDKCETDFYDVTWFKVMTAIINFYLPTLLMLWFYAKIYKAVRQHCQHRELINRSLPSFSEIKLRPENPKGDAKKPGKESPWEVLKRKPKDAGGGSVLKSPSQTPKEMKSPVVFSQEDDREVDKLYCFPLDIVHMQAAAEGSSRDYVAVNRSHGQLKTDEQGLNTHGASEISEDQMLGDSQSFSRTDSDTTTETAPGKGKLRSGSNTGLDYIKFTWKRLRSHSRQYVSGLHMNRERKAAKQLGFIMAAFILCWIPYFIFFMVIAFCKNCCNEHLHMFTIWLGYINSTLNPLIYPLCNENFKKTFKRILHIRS

Molecule COC(=O)Cc1ccc2c(c1)C(=C1CCN(CCNS(C)(=O)=O)CC1)c1sccc1CO2.Cl [Compound 177, Methyl {4-[1-(2-methanesulfonylaminoethyl)piperidin-4-ylidene]-4,10-dihydro-9-oxa-3-thiabenzo[f]azulen-6-yl}acetate hydrochloride] has an IC50 [1] of 7.12 nM, an ED50 [2] of 0.302 mg/kg and an ED50 (cerebral H1 receptor) of 125 mg/kg. The “ID50 (mg/kg)/ ED50 (mg/kg)” value (cerebral H1 receptor) was 412.6.
CCOC(=O)Cc1ccc2c(c1)C(=C1CCN(C)CC1)c1sccc1CO2.Cl [Compound 140, Ethyl[4-(1-methylpiperidin-4-ylidene)-4,10-dihydro-9-oxa-3-thiabenzo[f]azulen-6-yl]acetate hydrochloride] was tested, and the IC50 [1] was 10.1 nM, the ED50 [2] was about 0.01 mg/kg and the ED50 (cerebral H1 receptor) was 3.5 mg/kg. For the same molecule, the “ID50 (mg/kg)/ ED50 (mg/kg)” value (cerebral H1 receptor) was 350.0.
Work on COC(=O)CSc1ccc2c(c1)C(=C1CCN(C)CC1)c1sccc1CO2.Cl [Compound 171, Methyl[4-(1-methylpiperidin-4-ylidene)-4,10-dihydro-9-oxa-3-thiabenzo[f]azulen-6-ylsulfanyl]acetate hydrochloride] yielded an IC50 [1] of 4.16 nM, an ED50 [2] of 0.073 mg/kg and an ED50 (cerebral H1 receptor) of 29.6 mg/kg. The “ID50 (mg/kg)/ ED50 (mg/kg)” value (cerebral H1 receptor) was 405.5.
CN1CCC(=C2c3ccccc3CCc3sc(C(=O)NCCO)cc32)CC1 [Compound 27, N-(2-Hydroxyethyl) [4-(1-methylpiperidin-4-ylidene)-9,10-dihydro-4H-1-thiabenzo[f]azulen-2-yl]carboxamide] showed an IC50 [1] of 52.8 nM, an ED50 [2] of 1.63 mg/kg and an ED50 (cerebral H1 receptor) of 55.1 mg/kg. The “ID50 (mg/kg)/ ED50 (mg/kg)” value (cerebral H1 receptor) was 33.8.
In the case of COC(=O)COc1ccc2c(c1)C(=C1CCN(C)CC1)c1sccc1CO2.Cl [Compound 165, Methyl[4-(1-methylpiperidin-4-ylidene)-4,10-dihydro-9-oxa-3-thiabenzo[f]azulen-6-yloxy]acetate hydrochloride], the IC50 [1] is reported as 11.8 nM, the ED50 [2] is reported as 0.107 mg/kg and the ED50 (cerebral H1 receptor) is reported as 23 mg/kg. For the same molecule, the “ID50 (mg/kg)/ ED50 (mg/kg)” value (cerebral H1 receptor) was 215.0.
CCOC(=O)C=Cc1cc2c(s1)CCc1ccccc1C2=C1CCNCC1.Cl [Compound 145, Ethyl 3-(4-piperidin-4-ylidene-9,10-dihydro-4H-1-thiabenzo[f]azulen-2-yl)acrylate hydrochloride] gave an IC50 [1] of 68.6 nM, an ED50 [2] of 0.29 mg/kg and an ED50 (cerebral H1 receptor) of over 200 mg/kg. For the same molecule, the “ID50 (mg/kg)/ ED50 (mg/kg)” value (cerebral H1 receptor) was over 689.7.
Work on COC(=O)Cc1ccc2c(c1)C(=C1CCN(CCCO)CC1)c1sccc1CO2.Cl [Compound 138, Methyl {4-[1-(3-hydroxypropyl)piperidin-4-ylidene]-4,10-dihydro-9-oxa-3-thiabenzo[f]azulen-6-yl}acetate hydrochloride] yielded an IC50 [1] of 26 nM, an ED50 [2] of 0.47 mg/kg and an ED50 (cerebral H1 receptor) of 65.4 mg/kg. The “ID50 (mg/kg)/ ED50 (mg/kg)” value (cerebral H1 receptor) was 139.1.
COC(=O)CSc1ccc2c(c1)C(=C1CCNCC1)c1sccc1CO2.Cl [Compound 197, Methyl (4-piperidin-4-ylidene-4,10-dihydro-9-oxa-3-thiabenzo[f]azulen-6-ylsulfanyl)acetate hydrochloride] gave an IC50 [1] of 80.9 nM, an ED50 [2] of 0.19 mg/kg and an ED50 (cerebral H1 receptor) of over 200 mg/kg. The “ID50 (mg/kg)/ ED50 (mg/kg)” value (cerebral H1 receptor) was over 1052.6.
CN1CCC(=C2c3cc(CC(=O)O)ccc3CCc3sccc32)CC1 [Compound 151, [4-(1-Methylpiperidin-4-ylidene)-9,10-dihydro-4H-1-thiabenzo[f]azulen-6-yl]acetic acid] showed an IC50 [1] of 93.6 nM, an ED50 [2] of under 0.1 mg/kg and an ED50 (cerebral H1 receptor) of 6.36 mg/kg. The “ID50 (mg/kg)/ ED50 (mg/kg)” value (cerebral H1 receptor) was over 63.6.
CCN1CCC(=C2c3cc(CCCC(=O)O)ccc3OCc3ccsc32)CC1 [Compound 142, 4-[4-(1-Ethylpiperidin-4-ylidene)-4,10-dihydro-9-oxa-3-thiabenzo[f]azulen-6-yl]butyric acid] was tested, and the IC50 [1] was 90.9 nM, the ED50 [2] was about 0.3 mg/kg and the ED50 (cerebral H1 receptor) was 11.9 mg/kg. The “ID50 (mg/kg)/ ED50 (mg/kg)” value (cerebral H1 receptor) was 39.7.
CCOC(=O)CCN1CCC(=C2c3cc(CC(=O)OC)ccc3OCc3ccsc32)CC1.Cl [Compound 173, Ethyl 3-[4-(6-methoxycarbonylmethyl-10H-9-oxa-3-thiabenzo[f]azulen-4-ylidene)piperidin-1-yl]propionate hydrochloride] gave an IC50 [1] of 1.26 nM, an ED50 [2] of 1.43 mg/kg and an ED50 (cerebral H1 receptor) of 87.1 mg/kg. For the same molecule, the “ID50 (mg/kg)/ ED50 (mg/kg)” value (cerebral H1 receptor) was 60.9.
In the case of CCOC(=O)Cc1ccc2c(c1)C(=C1CCNCC1)c1sccc1CO2.Cl [Compound 113, Ethyl (4-piperidin-4-ylidene-4,10-dihydro-9-oxa-3-thiabenzo[f]azulen-6-yl)acetate hydrochloride], the ED50 [2] is reported as 0.072 mg/kg, the ED50 (cerebral H1 receptor) is reported as 98.7 mg/kg and the “ID50 (mg/kg)/ ED50 (mg/kg)” value (cerebral H1 receptor) is reported as 1370.8.
With COC(=O)CCCc1ccc2c(c1)C(=C1CCNCC1)c1sccc1CO2.Cl [Compound 135, Methyl 4-(4-piperidin-4-ylidene-4,10-dihydro-9-oxa-3-thiabenzo[f]azulen-6-yl)butyrate hydrochloride] the ED50 [2] was 2.33 mg/kg, the ED50 (cerebral H1 receptor) was over 200 mg/kg and the “ID50 (mg/kg)/ ED50 (mg/kg)” value (cerebral H1 receptor) was over 85.8.
In the case of CN1CCC(=C2c3cc(CC(=O)O)ccc3OCc3sccc32)CC1 [Compound 117, [4-(1-Methylpiperidin-4-ylidene)-4,10-dihydro-9-oxa-1-thiabenzo[f]azulen-6-yl]acetic acid], the ED50 [2] is reported as 0.027 mg/kg, the ED50 (cerebral H1 receptor) is reported as 4.2 mg/kg and the “ID50 (mg/kg)/ ED50 (mg/kg)” value (cerebral H1 receptor) is reported as 155.6.
In the case of CC(C)(C(=O)O)c1cc2c(s1)CCc1ccccc1C2=C1CCNCC1.Cl [Compound 153, 2-Methyl-2-(4-piperidin-4-ylidene-9,10-dihydro-4H-1-thiabenzo[f]azulen-2-yl)propionic acid hydrochloride], the ED50 [2] is reported as 2.61 mg/kg, the ED50 (cerebral H1 receptor) is reported as over 200 mg/kg and the “ID50 (mg/kg)/ ED50 (mg/kg)” value (cerebral H1 receptor) is reported as over 76.6.
COC(=O)Cc1ccc2c(c1)C(=C1CCN(CC(C)=O)CC1)c1sccc1CO2.Cl [Compound 167, Methyl {4-[1-(2-oxopropyl)piperidin-4-ylidene]-4,10-dihydro-9-oxa-3-thiabenzo[f]azulen-6-yl}acetate hydrochloride] was tested, and the ED50 [2] was 0.194 mg/kg, the ED50 (cerebral H1 receptor) was 35.1 mg/kg and the “ID50 (mg/kg)/ ED50 (mg/kg)” value (cerebral H1 receptor) was 180.9.
CCN1CCC(=C2c3ccccc3CCc3sc(C(=O)O)cc32)CC1.Cl [Compound 108, [4-(1-Ethylpiperidin-4-ylidene)-9,10-dihydro-4H-1-thiabenzo[f]azulen-2-yl]carboxylic acid hydrochloride] was tested, and the ED50 [2] was 1.16 mg/kg, the ED50 (cerebral H1 receptor) was 110 mg/kg and the “ID50 (mg/kg)/ ED50 (mg/kg)” value (cerebral H1 receptor) was 95.3.
